Reference: publication PMC13211308, “Chemical genetics reveals Leishmania KKT2 and CRK9 kinase activity is required for cell cycle progression” (PLOS Pathogens, 2026)

Target: T1, rCLK1 (recombinant CLK1, KKT10) (Leishmania mexicana, UniProt E9AMP2)
T1 construct: gene LMXM_09_0400
T1 sequence (E9AMP2 1-422): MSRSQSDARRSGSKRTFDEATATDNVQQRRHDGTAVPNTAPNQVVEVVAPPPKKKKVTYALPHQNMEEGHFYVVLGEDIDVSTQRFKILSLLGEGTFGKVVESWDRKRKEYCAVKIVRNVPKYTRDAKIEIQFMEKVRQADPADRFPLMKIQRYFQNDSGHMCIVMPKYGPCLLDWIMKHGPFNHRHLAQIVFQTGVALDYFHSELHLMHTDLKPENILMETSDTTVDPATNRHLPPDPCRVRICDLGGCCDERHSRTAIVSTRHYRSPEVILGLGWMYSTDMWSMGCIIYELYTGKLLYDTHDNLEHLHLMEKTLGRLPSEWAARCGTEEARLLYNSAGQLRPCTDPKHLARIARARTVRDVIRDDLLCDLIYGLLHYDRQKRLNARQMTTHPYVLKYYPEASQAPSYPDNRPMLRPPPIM
Conditions: 1 mM ATP, 5 mM MgCl2, 1 mM MnCl2, pH 7.5, 2 h, 37 °C

`Nc1ncnc2c1ncn2[C@@H]1O[C@H](COP(=O)(O)OP(=O)(O)OP(=O)(O)O)[C@@H](O)[C@H]1O` [ATP] was tested, and the “autophosphorylation by intact mass spectrometry” value was “Following incubation with ATP, rCLK1 exhibited three distinct phosphorylation states”.
